Test results published in PubChem BioAssay (NCI).
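Exposure lasted 48 hours, with cells grown in 96-well plates and compounds tested at five concentrations. GI50 marks 50% less growth. Definition used: TGI = concentration required for complete inhibition of growth.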

Experiments:
Test in all cases: DTP human tumour cell line panel, 48 h
[1] = system: T-47D breast
[2] = system: MDA-MB-231 breast
[3] = system: BT-549 breast
[4] = system: HS 578T breast
[5] = system: NCI/ADR-RES ovarian
[6] = system: MDA-N
[7] = system: KM20L2 colon

Compound	GI50 [1]	TGI [1]	GI50 [2]	TGI [2]	GI50 [3]	TGI [3]	GI50 [4]	TGI [4]	GI50 [5]	TGI [5]	GI50 [6]	TGI [6]	TGI [7]	GI50 [7]
CC(=O)OC1C2(CC3N4C(=O)C5(CO)SSC4(CC31O)C(=O)N5C)OC(C)C(C)(C)C2=O (stereo not given)	< 10 nM	0.0782 µM	< 0.01 µM	0.0558 µM	0.146 µM	0.728 µM	0.0449 µM	0.213 µM	< 0.042 µM	0.879 µM	–	–	–	–
C=C[C@]1(C)C=C2C(=O)[C@@]3(O)OC[C@@]4(CCCC(C)(C)C43O)C2(O)C(O)C1 (stereo not given in full)	759 nM	2.43 µM	13.3 µM	27.3 µM	3.47 µM	13.2 µM	5.13 µM	22.2 µM	2.33 µM	6.62 µM	–	–	–	–
CC[CH2][Pb]([CH2]CC)([CH2]CC)[NH]S(=O)(=O)c1ccc(C)cc1	–	–	0.0661 µM	0.27 µM	0.0209 µM	0.0499 µM	0.0638 µM	0.354 µM	0.217 µM	0.641 µM	29.4 nM	140 nM	–	–
Cc1ccc2c(c1)ncn2-c1ncnc2c1CC(C)c1ccccc1N2C (stereo not given)	2170 nM	8.53 µM	0.192 µM	16.6 µM	0.314 µM	8.25 µM	0.104 µM	51 µM	0.058 µM	30.4 µM	–	–	–	–
Cc1cc(N2CCCC2)nc(N(CCCNc2ccnc3cc(Cl)ccc23)Cc2ccc3c(c2)OCO3)n1	1420 nM	4.66 µM	0.681 µM	3.42 µM	–	–	1.74 µM	4.21 µM	1.43 µM	3.92 µM	–	–	–	–
Nc1nc(OCc2ccccc2)nc2[nH]ncc12	4120 nM	9.69 µM	11.4 µM	25.6 µM	23.2 µM	54.8 µM	17.5 µM	38.5 µM	17.6 µM	42.4 µM	–	–	–	–
COc1ccc2c(c1)C(=O)c1c-2n(CCCN2CCOCC2)c(=O)c2ccccc12	1550 nM	7.41 µM	15.4 µM	> 100 µM	2.55 µM	13.6 µM	8.95 µM	> 100 µM	3.8 µM	> 93.1 µM	–	–	–	–
O=C(NN1C(=O)CSC1c1ccc(Cl)cc1)c1[nH]c2ccc(F)cc2c1-c1ccccc1 (stereo not given)	3730 nM	14.2 µM	2.81 µM	7.86 µM	2.09 µM	5.37 µM	2.84 µM	9.37 µM	3 µM	10.6 µM	–	–	–	–
COC(=O)[C@@H]1CCCN1C(=O)[C@@H]1CCCN1C(=O)[C@@H](Cc1c[nH]c2ccccc12)NC(=S)Nc1cc(C(F)(F)F)cc(C(F)(F)F)c1	2910 nM	9.5 µM	3.01 µM	10.8 µM	4.75 µM	28.6 µM	7.81 µM	> 100 µM	> 100 µM	> 100 µM	–	–	–	–
Fc1ccc(Nc2nc(NCCNc3ccnc4cc(Cl)ccc34)nc(N3CCOCC3)n2)cc1	10900 nM	27.4 µM	3.05 µM	11.1 µM	8.67 µM	22 µM	7.32 µM	28.9 µM	9.36 µM	26.5 µM	–	–	–	–
CS(=O)(=O)Nc1cc(-c2ccc3ncnc(Nc4ccc5c(cnn5Cc5ccc(F)cc5)c4)c3c2)cnc1Cl	256 nM	2.23 µM	–	–	0.957 µM	6.47 µM	0.246 µM	2.04 µM	17 µM	> 100 µM	–	–	–	–
CC(=O)c1cccc(NCn2nnc3ccccc32)c1	–	–	–	–	–	–	–	–	–	–	–	–	> 100 µM	–
C=C(C)CCC(C)N1CCC(N2CCC(C(=O)NCCc3ccccc3)CC2)CC1 (stereo not given)	13400 nM	> 100 µM	29.9 µM	> 100 µM	12.1 µM	> 100 µM	20.4 µM	61.8 µM	37.4 µM	> 100 µM	–	–	–	–
NCc1ccc(-n2c(-c3nonc3N)nc3cnccc32)cc1	8480 nM	> 25 µM	> 25 µM	> 25 µM	0.964 µM	> 25 µM	0.674 µM	> 25 µM	> 25 µM	> 25 µM	–	–	–	–
N#CC1C(N)=NNC12Nc1ccccc1N2 (stereo not given)	50300 nM	> 100 µM	3.04 µM	40.6 µM	6.55 µM	31.6 µM	4.8 µM	25.7 µM	24.5 µM	74.5 µM	–	–	–	–
CC(C)OC(=O)c1ccc2[nH]c(O)c(C(=Nc3ccc(N(C)C(=O)CN4CCN(C)CC4)cc3)c3ccccc3)c2c1	1200 nM	3.6 µM	0.16 µM	0.715 µM	1.28 µM	2.68 µM	0.0994 µM	1.15 µM	–	–	–	–	–	–
COc1cnc2c(c1)C(=O)c1c-2n(CCCN2CCCC2)c(=O)c2cc(Cl)ccc12	1210 nM	18.9 µM	6.15 µM	15.2 µM	3.8 µM	12.9 µM	6.87 µM	17.9 µM	0.222 µM	8.86 µM	–	–	–	–
CN(C)c1ccc(N=Nc2c([O-])ccc3ccccc23)cc1.[C-]#[O+].[C-]#[O+].[Ir]	–	–	18.8 µM	36.2 µM	19.6 µM	56.7 µM	19.3 µM	70.9 µM	19.3 µM	57.7 µM	–	–	59 µM	26 µM
Fc1ccc(Nc2nccc(-c3c(-c4ccc(C(F)(F)F)cc4)nn4ncccc34)n2)cc1F	> 25000 nM	> 25 µM	> 25 µM	> 25 µM	> 25 µM	> 25 µM	> 25 µM	> 25 µM	> 25 µM	> 25 µM	–	–	–	–
O=c1[nH]cnc2c(C3OC(CO)C(O)C3O)scc12 (stereo not given)	> 100000 nM	> 100 µM	37.5 µM	> 100 µM	> 100 µM	> 100 µM	> 100 µM	> 100 µM	44.5 µM	> 100 µM	–	–	–	–
CCOC(=O)c1c(C)n(Cc2ccc(Cl)cc2Cl)c2c1cc1oc(=O)c(=O)n3c(Cc4ccccc4)nc2c13	4900 nM	22.2 µM	2.77 µM	7.23 µM	2.55 µM	6.4 µM	1.21 µM	3.12 µM	5.46 µM	18.3 µM	–	–	–	–
